Where “and” joins values, the source holds several entries; their conditions need not be identical. Equal entries are not always repeated.

In one experiment the target is T1, human transferrin receptor (hTfR) (Homo sapiens, UniProt P02786).
T1 construct: made in house
T1 sequence (P02786 89-760 limits assumed): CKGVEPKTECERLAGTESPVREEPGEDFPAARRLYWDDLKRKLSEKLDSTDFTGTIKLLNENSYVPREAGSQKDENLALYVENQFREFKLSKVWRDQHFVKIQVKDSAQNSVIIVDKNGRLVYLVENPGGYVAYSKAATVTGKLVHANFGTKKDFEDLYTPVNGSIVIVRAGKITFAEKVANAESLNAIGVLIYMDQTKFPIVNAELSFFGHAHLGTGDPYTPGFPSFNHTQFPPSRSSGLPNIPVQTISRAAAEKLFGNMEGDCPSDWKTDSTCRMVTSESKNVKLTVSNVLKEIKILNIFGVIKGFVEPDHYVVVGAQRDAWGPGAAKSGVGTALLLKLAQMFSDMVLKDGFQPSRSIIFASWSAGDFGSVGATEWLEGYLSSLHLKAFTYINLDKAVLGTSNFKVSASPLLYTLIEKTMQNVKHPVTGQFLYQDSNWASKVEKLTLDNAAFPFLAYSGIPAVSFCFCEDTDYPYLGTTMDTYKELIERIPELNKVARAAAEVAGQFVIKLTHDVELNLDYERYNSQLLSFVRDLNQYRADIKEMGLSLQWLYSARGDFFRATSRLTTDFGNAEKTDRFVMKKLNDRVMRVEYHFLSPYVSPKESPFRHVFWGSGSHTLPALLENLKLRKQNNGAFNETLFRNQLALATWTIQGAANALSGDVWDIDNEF
Kind of experiment: Evaluation of molecular interaction between transferrin receptor (hTfR) and peptide using surface plasmon resonance (SPR). The experiment is classed as binding. Particulars: SPR, immobilized recombinant hTfR, single-cycle kinetics; substitution variants of 894_3151; read-out: KD. In short, it runs like this: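 Using a Ni-NTA surface bearing covalently coupled hTfR dimer, peptides were tested at five concentrations from 5 to 100 nM. Running buffer was 10 mM HEPES pH 8.0, 150 mM NaCl, 0.05% Tween 20, 0.1% BSA, 1.0% DMSO; single-cycle sensorgrams were least-squares fitted for KD.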
Take `CC[C@H](C)[C@@H]1NC(=O)[C@H](Cc2ccc(O)cc2)NC(=O)[C@H](Cc2ccc(O)cc2)NC(=O)[C@H](CC(N)=O)NC(=O)[C@H](Cc2c[nH]c3ccccc23)NC(=O)[C@H](C(C)C)NC(=O)[C@H](Cc2ccccc2)N(C)C(=O)[C@H](C(C)C)NC(=O)[C@H](C)NC(=O)CSC[C@@H](C(=O)NCC(=O)N[C@@H](CCCCN=[N+]=[N-])C(N)=O)NC(=O)[C@H](Cc2ccc(O)cc2)N(C)C(=O)[C@H](Cc2ccc(O)cc2)NC(=O)[C@H](CCCNC(=N)N)NC(=O)[C@H](CCCNC(=N)N)NC(=O)[C@H]([C@@H](C)CC)NC1=O` [compound 13]: the Kd was determined as 1.3 nM.

Staying with this experiment, now noted: ratio of KD to KD of 894_3151 (SEQ ID NO: 13).
As to `CC[C@H](C)[C@@H]1NC(=O)[C@H](Cc2ccc(O)cc2)NC(=O)[C@H](Cc2ccc(O)cc2)NC(=O)[C@H](CC(N)=O)NC(=O)[C@H](Cc2c[nH]c3ccccc23)NC(=O)[C@H](C(C)C)NC(=O)[C@H](Cc2ccccc2)N(C)C(=O)[C@H](C(C)C)NC(=O)[C@H](C)NC(=O)CSC[C@@H](C(=O)NCC(=O)N[C@@H](CCCCN=[N+]=[N-])C(N)=O)NC(=O)[C@H](Cc2ccc(O)cc2)N(C)C(=O)[C@H](Cc2ccc(O)cc2)NC(=O)[C@H](CCCNC(=N)N)NC(=O)[C@H](CCCNC(=N)N)NC(=O)[C@H]([C@@H](C)CC)NC1=O` [compound 13], the “KD (Each Peptide)/KD (894_3151)” value was 1.0 and 1.4.

Staying with this experiment, now noted: surface plasmon resonance, binding to hTfR; KD class symbol; read-out: SPR (KD value).
Turning to `CC[C@H](C)[C@@H]1NC(=O)[C@H](Cc2ccc(OC)cc2)NC(=O)[C@H](Cc2ccc(O)cc2)NC(=O)[C@H](CC(N)=O)NC(=O)[C@H](Cc2c[nH]c3ccccc23)NC(=O)[C@H](C(C)C)NC(=O)[C@H](Cc2cccc(Cl)c2)N(C)C(=O)[C@H](C(C)C)NC(=O)[C@H](C)NC(=O)CSC[C@@H](C(=O)NCC(=O)N[C@@H](CCCCN=[N+]=[N-])C(N)=O)NC(=O)[C@H](Cc2ccc(O)cc2)N(C)C(=O)[C@H](Cc2ccccc2)NC(=O)[C@H](CCCNC(=N)N)NC(=O)[C@H](CCCCN)NC(=O)[C@H]([C@@H](C)CC)NC1=O` [compound 12], the Kd fell in the range of 1 to 100 nM. The same measure, in the same setting: next, `CC[C@H](C)[C@@H]1NC(=O)[C@H](Cc2ccc(O)cc2)NC(=O)[C@H](Cc2ccc(O)cc2)NC(=O)[C@H](CC(N)=O)NC(=O)[C@H](Cc2c[nH]c3ccccc23)NC(=O)[C@H](C(C)C)NC(=O)[C@H](Cc2ccccc2)N(C)C(=O)[C@H](C(C)C)NC(=O)[C@H](C)NC(=O)CSC[C@@H](C(=O)NCC(=O)N[C@@H](CCCCN=[N+]=[N-])C(N)=O)NC(=O)[C@H](Cc2ccc(O)cc2)N(C)C(=O)[C@H](Cc2ccc(O)cc2)NC(=O)[C@H](CCCNC(=N)N)NC(=O)[C@H](CCCNC(=N)N)NC(=O)[C@H]([C@@H](C)CC)NC1=O` [compound 13]: less than 1 nM. In the case of `CC[C@H](C)[C@@H]1NC(=O)[C@H](Cc2ccc(O)cc2)NC(=O)[C@H](Cc2ccc(O)cc2)NC(=O)[C@H](CC(N)=O)NC(=O)[C@H](Cc2c[nH]c3ccccc23)NC(=O)[C@H](C(C)C)NC(=O)[C@H](Cc2ccccc2)N(C)C(=O)[C@H](C(C)C)NC(=O)[C@H](C)NC(=O)CSC[C@@H](C(=O)NCCOCCOCCOCCOCCC(N)=O)NC(=O)[C@H](Cc2ccc(O)cc2)N(C)C(=O)[C@H](Cc2ccccc2)NC(=O)[C@@H](CCCNC(=N)N)NC(=O)[C@H](CCCNC(=N)N)NC(=O)[C@H]([C@@H](C)CC)NC1=O` [compound 14], the dissociation constant (Kd) is 1 to 100 nM. The same measure, in the same setting: for `CC[C@H](C)[C@@H]1NC(=O)[C@H](Cc2ccc(OC)cc2)NC(=O)[C@H](Cc2ccc(O)cc2)NC(=O)[C@H](CC(N)=O)NC(=O)[C@H](Cc2c[nH]c3ccccc23)NC(=O)[C@H](C(C)C)NC(=O)[C@H](Cc2ccccc2)N(C)C(=O)[C@H](C(C)C)NC(=O)[C@H](C)NC(=O)CSC[C@@H](C(=O)NCCOCCOCCOCCOCCC(N)=O)NC(=O)[C@H](Cc2ccc(O)cc2)N(C)C(=O)[C@H](Cc2ccccc2)NC(=O)[C@@H](CCCNC(=N)N)NC(=O)[C@H](CCCNC(=N)N)NC(=O)[C@H]([C@@H](C)CC)NC1=O` [compound 15] the value was 1 to 100 nM. Still for that read-out and setting: next, `CC[C@H](C)[C@@H]1NC(=O)[C@H](Cc2ccc(O)cc2)NC(=O)[C@H](Cc2ccc(O)cc2)NC(=O)[C@H](CC(N)=O)NC(=O)[C@H](Cc2c[nH]c3ccccc23)NC(=O)[C@H](C(C)C)NC(=O)[C@H](Cc2ccccc2)N(C)C(=O)[C@H](C(C)C)NC(=O)[C@H](C)NC(=O)CSC[C@@H](C(=O)NCCOCCOCCOCCOCCC(N)=O)NC(=O)[C@H](Cc2ccc(O)cc2)N(C)C(=O)[C@H](Cc2ccccc2)NC(=O)[C@H](CCCNC(=N)N)NC(=O)[C@H](CCCNC(=N)N)N(C)C(=O)[C@H]([C@@H](C)CC)NC1=O` [compound 16]: 1 to 100 nM. With `CC[C@H](C)[C@@H]1NC(=O)[C@H](Cc2ccc(OC)cc2)NC(=O)[C@H](Cc2ccc(O)cc2)NC(=O)[C@H](CC(N)=O)NC(=O)[C@H](Cc2c[nH]c3ccccc23)NC(=O)[C@H](C(C)C)NC(=O)[C@H](Cc2ccccc2)N(C)C(=O)[C@H](C(C)C)NC(=O)[C@H](C)NC(=O)CSC[C@@H](C(=O)NCCOCCOCCOCCOCCC(N)=O)NC(=O)[C@H](Cc2ccc(O)cc2)N(C)C(=O)[C@H](Cc2ccccc2)NC(=O)[C@H](CCCNC(=N)N)NC(=O)[C@H](CCCNC(=N)N)N(C)C(=O)[C@H]([C@@H](C)CC)NC1=O` [compound 17], the Kd was in the range of 1 to 100 nM. With `CC[C@H](C)[C@@H]1NC(=O)[C@H](Cc2ccc(O)cc2)NC(=O)[C@H](Cc2ccc(O)cc2)NC(=O)[C@H](CC(N)=O)NC(=O)[C@H](Cc2c[nH]c3ccc(Cl)cc23)NC(=O)[C@H](C(C)C)NC(=O)[C@H](Cc2ccccc2)N(C)C(=O)[C@H](C(C)C)NC(=O)[C@H](C)NC(=O)CSC[C@@H](C(=O)NCCOCCOCCOCCOCCC(N)=O)NC(=O)[C@H](Cc2ccc(O)cc2)N(C)C(=O)[C@H](Cc2ccccc2)NC(=O)[C@H](CCCNC(=N)N)NC(=O)[C@H](CCCNC(=N)N)NC(=O)[C@H]([C@@H](C)CC)NC1=O` [compound 18], the Kd was less than 1 nM. Same read-out and setting: for `CC[C@H](C)[C@@H]1NC(=O)[C@H](Cc2ccc(OC)cc2)NC(=O)[C@H](Cc2ccc(O)cc2)NC(=O)[C@H](CC(N)=O)NC(=O)[C@H](Cc2c[nH]c3ccc(Cl)cc23)NC(=O)[C@H](C(C)C)NC(=O)[C@H](Cc2ccccc2)N(C)C(=O)[C@H](C(C)C)NC(=O)[C@H](C)NC(=O)CSC[C@@H](C(=O)NCCOCCOCCOCCOCCC(N)=O)NC(=O)[C@H](Cc2ccc(O)cc2)N(C)C(=O)[C@H](Cc2ccccc2)NC(=O)[C@H](CCCNC(=N)N)NC(=O)[C@H](CCCNC(=N)N)NC(=O)[C@H]([C@@H](C)CC)NC1=O` [compound 19] the value was less than 1 nM; for `CC[C@H](C)[C@@H]1NC(=O)[C@H](Cc2ccc(O)cc2)NC(=O)[C@H](Cc2ccc(O)cc2)NC(=O)[C@H](CC(N)=O)NC(=O)[C@H](Cc2c[nH]c3ccc(Cl)cc23)NC(=O)[C@H](C(C)C)NC(=O)[C@H](Cc2ccccc2)N(C)C(=O)[C@H](C(C)C)NC(=O)[C@H](C)NC(=O)CSC[C@@H](C(=O)NCCOCCOCCOCCOCCC(N)=O)NC(=O)[C@H](Cc2ccc(O)cc2)N(C)C(=O)[C@H](Cc2ccccc2)NC(=O)[C@@H](CCCNC(=N)N)NC(=O)[C@H](CCCNC(=N)N)NC(=O)[C@H]([C@@H](C)CC)NC1=O` [compound 20], 1 to 100 nM. Same read-out and setting: next, `CC[C@H](C)[C@@H]1NC(=O)[C@H](Cc2ccc(OC)cc2)NC(=O)[C@H](Cc2ccc(O)cc2)NC(=O)[C@H](CC(N)=O)NC(=O)[C@H](Cc2c[nH]c3ccc(Cl)cc23)NC(=O)[C@H](C(C)C)NC(=O)[C@H](Cc2ccccc2)N(C)C(=O)[C@H](C(C)C)NC(=O)[C@H](C)NC(=O)CSC[C@@H](C(=O)NCCOCCOCCOCCOCCC(N)=O)NC(=O)[C@H](Cc2ccc(O)cc2)N(C)C(=O)[C@H](Cc2ccccc2)NC(=O)[C@@H](CCCNC(=N)N)NC(=O)[C@H](CCCNC(=N)N)NC(=O)[C@H]([C@@H](C)CC)NC1=O` [compound 21]: 1 to 100 nM; `CC[C@H](C)[C@@H]1NC(=O)[C@H](Cc2ccc(O)cc2)NC(=O)[C@H](Cc2ccc(O)cc2)NC(=O)[C@H](CC(N)=O)NC(=O)[C@H](Cc2c[nH]c3ccc(Cl)cc23)NC(=O)[C@H](C(C)C)NC(=O)[C@H](Cc2ccc(F)cc2)N(C)C(=O)[C@H](C(C)C)NC(=O)[C@H](C)NC(=O)CSC[C@@H](C(=O)NCCOCCOCCOCCOCCC(N)=O)NC(=O)[C@H](Cc2ccc(O)cc2)N(C)C(=O)[C@H](Cc2ccccc2)NC(=O)[C@H](CCCNC(=N)N)NC(=O)[C@H](CCCNC(=N)N)NC(=O)[C@H]([C@@H](C)CC)NC1=O` [compound 22]: less than 1 nM. On the same count and under the same terms, next, `CC[C@H](C)[C@@H]1NC(=O)[C@H](Cc2ccc(OC)cc2)NC(=O)[C@H](Cc2ccc(O)cc2)NC(=O)[C@H](CC(N)=O)NC(=O)[C@H](Cc2c[nH]c3ccc(Cl)cc23)NC(=O)[C@H](C(C)C)NC(=O)[C@H](Cc2ccc(F)cc2)N(C)C(=O)[C@H](C(C)C)NC(=O)[C@H](C)NC(=O)CSC[C@@H](C(=O)NCCOCCOCCOCCOCCC(N)=O)NC(=O)[C@H](Cc2ccc(O)cc2)N(C)C(=O)[C@H](Cc2ccccc2)NC(=O)[C@H](CCCNC(=N)N)NC(=O)[C@H](CCCNC(=N)N)NC(=O)[C@H]([C@@H](C)CC)NC1=O` [compound 23]: less than 1 nM; `CC[C@H](C)[C@@H]1NC(=O)[C@H](Cc2ccc(O)cc2)NC(=O)[C@H](Cc2ccc(O)cc2)NC(=O)[C@H](CC(N)=O)NC(=O)[C@H](Cc2c[nH]c3ccc(Cl)cc23)NC(=O)[C@H](C(C)C)NC(=O)[C@H](Cc2ccc(F)cc2)N(C)C(=O)[C@H](C(C)C)NC(=O)[C@H](C)NC(=O)CSC[C@@H](C(=O)NCCOCCOCCOCCOCCC(N)=O)NC(=O)[C@H](Cc2ccc(O)cc2)N(C)C(=O)[C@H](Cc2ccccc2)NC(=O)[C@@H](CCCNC(=N)N)NC(=O)[C@H](CCCNC(=N)N)NC(=O)[C@H]([C@@H](C)CC)NC1=O` [compound 24]: 1 to 100 nM. `CC[C@H](C)[C@@H]1NC(=O)[C@H](Cc2ccc(O)cc2)NC(=O)[C@H](Cc2ccc(O)cc2)NC(=O)[C@H](CC(N)=O)NC(=O)[C@H](Cc2c[nH]c3ccc(Cl)cc23)NC(=O)[C@H](C(C)C)NC(=O)[C@H](Cc2ccc(F)cc2)N(C)C(=O)[C@H](C(C)C)NC(=O)[C@H](C)NC(=O)CSC[C@@H](C(=O)NCCOCCOCCOCCOCCC(N)=O)NC(=O)[C@H](Cc2ccc(O)cc2)N(C)C(=O)[C@H](Cc2ccccc2)NC(=O)[C@@H](CCCNC(=N)N)NC(=O)[C@H](CCCNC(=N)N)N(C)C(=O)[C@H]([C@@H](C)CC)NC1=O` [compound 25]: the Kd lay in the range of 100 to 1000 nM. For the molecule `CC[C@H](C)[C@@H]1NC(=O)[C@H](Cc2ccc(OC)cc2)NC(=O)[C@H](Cc2ccc(O)cc2)NC(=O)[C@H](CC(N)=O)NC(=O)[C@H](Cc2c[nH]c3ccc(Cl)cc23)NC(=O)[C@H](C(C)C)NC(=O)[C@H](Cc2ccc(F)cc2)N(C)C(=O)[C@H](C(C)C)NC(=O)[C@H](C)NC(=O)CSC[C@@H](C(=O)NCCOCCOCCOCCOCCC(N)=O)NC(=O)[C@H](Cc2ccc(O)cc2)N(C)C(=O)[C@H](Cc2ccccc2)NC(=O)[C@@H](CCCNC(=N)N)NC(=O)[C@H](CCCNC(=N)N)NC(=O)[C@H]([C@@H](C)CC)NC1=O` [compound 26], the Kd lay in the range of 1 to 100 nM. Same read-out and setting: for `CC[C@H](C)[C@@H]1NC(=O)[C@H](Cc2ccc(OC)cc2)NC(=O)[C@H](Cc2ccc(O)cc2)NC(=O)[C@H](CC(N)=O)NC(=O)[C@H](Cc2c[nH]c3ccc(Cl)cc23)NC(=O)[C@H](C(C)C)NC(=O)[C@H](Cc2ccc(F)cc2)N(C)C(=O)[C@H](C(C)C)NC(=O)[C@H](C)NC(=O)CSC[C@@H](C(=O)NCCOCCOCCOCCOCCC(N)=O)NC(=O)[C@H](Cc2ccc(O)cc2)N(C)C(=O)[C@H](Cc2ccccc2)NC(=O)[C@@H](CCCNC(=N)N)NC(=O)[C@H](CCCNC(=N)N)N(C)C(=O)[C@H]([C@@H](C)CC)NC1=O` [compound 27] the value was 1 to 100 nM.
